Paper PMC12612973, “Inhibition of Human Amylin Aggregation: In Silico and In Vitro Studies” (ACS Omega, 2025)
Several values for one entry are separate records, joined by “and”; a condition that tells them apart may be missing. Equal values may be shown once. Read-outs that look alike come from different tables or passages of the source.

Key:
[1] = molecular target: T1, human amylin (hIAPP) (Homo sapiens, UniProt P10997); assay: Dynamic light scattering (DLS) assay of amylin aggregation; assay type: biochemical; conditions: compound 10 μM, amylin 15 μM, 36 h incubation, 3 trials; read-out: DLS inhibition % (mean ± SEM)
T1 construct: purchased Bachem USA
T1 sequence (P10997 34-70 limits assumed): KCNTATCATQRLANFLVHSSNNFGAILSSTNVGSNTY
Description: A stock solution of amylin (1 mM) (purchased from Bachem USA), peptide sequence: […] amide (with disulfide bond between Cys2 and Cys7), was prepared in 100% hexafluoroisopropyl alcohol (HFIP) (purchased from Sigma-Aldrich) and stored at −20 °C. , Aliquots of amylin peptide were filtered through a 0.22 μm filter from the stock solution and freeze-dried. For kinetic experiments, 15 μM of amylin was prepared in 50 mM Tris-HCl buffer (pH 7.4), as investigated in previous studies by Chaari et al., , Samples of amylin were prepared in the presence or absence of inhibitors. Each compound was dissolved in DMSO and further diluted with the buffer used to solubilize the amylin. The final mixture contained 15 μM amylin, 10 μM of the test compound, 2% DMSO or 15 μM amylin, and 2% DMSO without the compound (negative control). Also 15 μM amylin, 10 μM of oleuropein aglycone and 2% DMSO was used as a positive control. The prepared solutions were incubated under physiological conditions (pH 7.4 and 37 °C) for amylin aggregation. Samples were incubated for 36 h to test for amylin aggregation, and measurements were conducted at different time points.
DLS (Zetasizer, Malvern) was used at a wavelength of 633 nm to measure the average diffusion coefficient distribution of amylin particles and the aggregation percentage. Samples were diluted 10-fold, and 50 μL was placed into a 96-well plate. The total light scattering intensity at a 90° angle was collected using a 10 s averaging acquisition time. Particle translational diffusion coefficients were calculated from autocorrelated light intensity data (usually 30–40 points) and converted to the hydrodynamic radius (R h) using the Stokes–Einstein equation. A distribution plot of intensity versus R h was calculated using the Sedfit 9.3 analysis software, and intensity-weighted mean R h values were obtained from each peak.

[2] = molecular target: T1, human amylin (hIAPP); assay: Thioflavin T (ThT) fluorescence assay of amylin aggregation; assay type: biochemical; conditions: read-out: IC50 of amylin aggregation inhibition
[3] = system: Aβ; parameters: method as in Panek et al.; conditions: based on ThT assay results; ref Panek et al.; read-out: IC50 of Aβ aggregation inhibition; cited from earlier work
[4] = molecular target: T1, human amylin (hIAPP); assay: Kinetic analysis of amylin aggregation (ThT, two-step autocatalytic aggregation model); assay type: biochemical; conditions: mean ± S.D.; for t 0 (time point when the aggregation starts): 10% of highest ThT fluorescence; for t 1/2 (aggregation halftime): 50% of highest ThT fluorescence; for t 1 (aggregation endpoint): 90% of highest ThT fluorescence; for k / k e (elongation constant) / k n (nucleation constant) / ρ (ratio of kn to k): ThT data, autocatalytic aggregation model
Description: Kinetic analysis was performed according to the model of autocatalytic aggregation. According to Sabaté et al., aggregation is a two-step process, comprising nucleation (described by the k n constant) and fibrillation phases (represented by the k e constant). Two constants (k n and k e) are calculated using the eq : 5 f=ρ{e^[(1+ρ)kt]−1}/{1+ρe^[(1+ρ)kt]} where k = k e a (where a represents the initial concentration of the aggregating peptide), f stands for a fraction of the fibrillar form in the system, and ρ denotes the dimensionless ratio of k n to k. The parameters k and ρ were calculated first, then k n and k e.
Data were normalized as a fraction of the highest fluorescence from the three trials and fitted into the model of autocatalytic aggregation. The same procedure was repeated for the remaining trials. The second calculation aimed to find the time parameters of the aggregation process: t 0 (time point when the aggregation starts), t 1/2 (aggregation halftime), and t 1 (aggregation endpoint). t 0, t 1/2, and t 1 were calculated as 10%, 50%, and 90% of the highest fluorescence measurements from the three trials, respectively. All calculations were performed using GraphPad Prism 9.5.1, Statistica 13.3.721.1, and Microsoft Excel 2304.

[5] = molecular target: T1, human amylin (hIAPP); assay: Fluorescence quenching of amylin: Stern-Volmer, binding and thermodynamic analysis; conditions: for quenching of amylin's intrinsic fluorescence: compound 0 to 20 μM, excitation 275 nm; for Kd: read-out: K b (binding constant) (converted); for ΔH / ΔS: Van't Hoff plot, 25/30/37 °C
Description: The fluorescence emission scans (wavelengths 290 to 500 nm) of 10-fold diluted amylin samples were acquired with a PerkinElmer model LS 55. The excitation wavelength was set at 275 nm to observe the fluorescence of the tyrosine residue exclusively. The integrated spectrum from 290 to 450 nm was used to obtain the relative fluorescence values of Tyr. Fluorescence measurements were performed in 1 cm light-path quartz cuvettes, with both excitation and emission bandwidths set to 5 nm. Sample fluorescence was determined by subtracting the fluorescence of the buffer. Each experiment was performed in duplicate. ,
Quenching titrations with acrylamide were carried out by adding varying amounts of a quencher stock solution (5 M) to the protein solution (∼15 μM diluted 10-fold). , The excitation wavelength was set at 275 nm, and the fluorescence emission spectra were scanned from 275 to 500 nm using a PerkinElmer model LS 55. The emission and excitation slits were set to 5 and 10 nm, respectively, and a 1 cm cuvette was used for all experiments. According to the Stern–Volmer equation, the integration area between 290 and 450 nm was used for data analysis. , Before analyzing the quenching data, the fluorescence emission spectra were corrected for volume changes, scattering effects, and the inner filter effect due to acrylamide absorption. , Each experiment was performed in duplicate. The quenching mechanism analysis by the Stern–Volmer equation was calculated according to eq . F 0 is the fluorescence intensity without the quencher, and F is the intensity with a quencher. K sv is the Stern–Volmer quenching constant, while Q is the quencher concentration. K q is the biomolecular quenching constant, and τ0 is the average lifetime of the fluorophore. 1 F0/F=1+Ksv[Q]=1+Kqτ0[Q]
The parameter n obtained from the fit is treated as an apparent slope/exponent (heterogeneous populations and partial fluorophore accessibility) and is not interpreted as the literal number of binding sites. 2 log(F0−F)/F=logKb+nlog[Q]
The Van’t Hoff equation was used to calculate the various thermodynamic interaction parameters. Equation was implemented to calculate the free energy change. 3 lnKb=−ΔH^°/RT+ΔS^°/R 4 ΔG^°=ΔH^°−TΔS^°=−RTlnKb

Structure (SMILES) | inhibition at 10 µM [1] [%] | IC50 [2] [µM] | IC50 [3] [µM] | t 0 (time point when the aggregation starts) [4] [h] | t 1/2 (aggregation halftime) [4] [h] | t 1 (aggregation endpoint) [4] [h] | k [4] [h^–1] | k e (elongation constant) [4] | k n (nucleation constant) [4] | ρ (ratio of kn to k) [4] | K q (quenching constant) ([5]; 25 °C) | K sv (Stern–Volmer quenching constant) ([5]; 25 °C) | n (apparent slope/exponent, binding sites) ([5]; 25 °C) | ΔG ([5]; 25 °C) | quenching of amylin's intrinsic fluorescence ([5]; 25 °C) | Kd ([5]; 25 °C) [µM] | K q (quenching constant) ([5]; 30 °C) | K sv (Stern–Volmer quenching constant) ([5]; 30 °C) | n (apparent slope/exponent, binding sites) ([5]; 30 °C) | ΔG ([5]; 30 °C) | further results
CC(C)(C)c1cccc(CNCC(O)CCNCCC(c2ccccc2)c2ccccc2)c1 (centres unmarked) [Compound 22] | 99.2 ± 6.8 | 2.71 | 1.22 | 4.36 ± 0.16 | 11.87 ± 1.02 | 20.69 ± 2.27 | 0.2326 ± 0.0366 | 15505 M^–1h^–1 and 15505 ± 2437 M^–1h^–1 | 0.014 h^–1 and 0.0142 ± 0.0006 h^–1 | 0.0624 ± 0.0126 | 5.67 ± 0.16 10^12 M^–1 s^–1 | 3.35 ± 0.18 10^4 M^–1 | 0.80 ± 0.15 | –5.05 ± 0.27 kJ/mol | substantial quenching | 1000 | 3.89 ± 0.11 10^12 M^–1 s^–1 | 2.30 ± 0.27 10^4 M^–1 | 1.06 ± 0.10 | –7.19 ± 0.17 kJ/mol | Kd ([5]; 30 °C): 20.9 µM; K q (quenching constant) ([5]; 37 °C): 2.88 ± 0.12 10^12 M^–1 s^–1; K sv (Stern–Volmer quenching constant) ([5]; 37 °C): 1.70 ± 0.13 10^4 M^–1; n (apparent slope/exponent, binding sites) ([5]; 37 °C): 1.15 ± 0.15; ΔG ([5]; 37 °C): –10.23 ± 0.41 kJ/mol; Kd ([5]; 37 °C): 10.7 µM; ΔH [5]: 29.637 ± 1.08 kcal/mol; ΔS [5]: 433.00 ± 9.13 J/mol K
CC(C)(C)c1cccc(CNCC(O)CNCCC(c2ccccc2)c2ccccc2)c1 (centres unmarked) [Compound 18] | 99.2 ± 6.5 | 3.04 | 3.09 | 9.31 ± 0.72 | 19.02 ± 0.57 | 29.29 ± 0.36 | 0.2087 ± 0.0084 | 13913 M^–1h^–1 and 13913 ± 560 M^–1h^–1 | 0.004 h^–1 and 0.0039 ± 0.0009 h^–1 | 0.0186 ± 0.0051 | 5.80 ± 0.17 10^12 M^–1 s^–1 | 3.43 ± 0.21 10^4 M^–1 | 0.60 ± 0.12 | –5.99 ± 0.10 kJ/mol | substantial quenching | 2500 | 4.57 ± 0.11 10^12 M^–1 s^–1 | 2.70 ± 0.39 10^4 M^–1 | 0.75 ± 0.10 | –6.99 ± 0.20 kJ/mol | Kd ([5]; 30 °C): 769 µM; K q (quenching constant) ([5]; 37 °C): 3.90 ± 0.12 10^12 M^–1 s^–1; K sv (Stern–Volmer quenching constant) ([5]; 37 °C): 2.30 ± 0.18 10^4 M^–1; n (apparent slope/exponent, binding sites) ([5]; 37 °C): 0.92 ± 0.10; ΔG ([5]; 37 °C): –8.38 ± 0.30 kJ/mol; Kd ([5]; 37 °C): 286 µM; ΔH [5]: 12.74 ± 1.17 kcal/mol; ΔS [5]: 199.00 ±14.13 J/mol K
